Results reported in ChEMBL document CHEMBL5291721, “A preclinical secondary pharmacology resource illuminates target-adverse drug reaction associations of marketed drugs” (Nat Commun, 2023).

Key:
Histamine H1 receptor = Histamine H1 receptor (Homo sapiens, UniProt P35367)
[1] = target: 5-hydroxytryptamine receptor 2B (Homo sapiens, UniProt P41595)
D(1A) dopamine receptor = D(1A) dopamine receptor (Homo sapiens, UniProt P21728)
Endothelin-1 receptor = target: T1, Endothelin-1 receptor (Homo sapiens, UniProt P25101)
T1 sequence (P25101 whole entry): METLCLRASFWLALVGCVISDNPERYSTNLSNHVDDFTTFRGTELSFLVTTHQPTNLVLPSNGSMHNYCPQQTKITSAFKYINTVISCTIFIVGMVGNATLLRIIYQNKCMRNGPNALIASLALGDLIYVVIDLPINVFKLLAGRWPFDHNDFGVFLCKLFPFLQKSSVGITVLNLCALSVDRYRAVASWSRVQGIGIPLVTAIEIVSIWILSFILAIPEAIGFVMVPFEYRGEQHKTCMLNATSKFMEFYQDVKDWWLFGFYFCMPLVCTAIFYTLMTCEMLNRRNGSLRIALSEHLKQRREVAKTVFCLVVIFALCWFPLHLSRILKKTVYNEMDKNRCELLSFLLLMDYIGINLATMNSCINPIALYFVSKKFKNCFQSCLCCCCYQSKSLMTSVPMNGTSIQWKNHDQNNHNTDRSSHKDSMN

Glucagon receptor = Glucagon receptor (Homo sapiens, UniProt P47871)
[2] = target: Voltage-dependent N-type calcium channel subunit alpha-1B (Rattus norvegicus, UniProt Q02294); type: functional
B1 bradykinin receptor = target: T2, B1 bradykinin receptor (Homo sapiens, UniProt P46663)
T2 sequence (P46663 whole entry): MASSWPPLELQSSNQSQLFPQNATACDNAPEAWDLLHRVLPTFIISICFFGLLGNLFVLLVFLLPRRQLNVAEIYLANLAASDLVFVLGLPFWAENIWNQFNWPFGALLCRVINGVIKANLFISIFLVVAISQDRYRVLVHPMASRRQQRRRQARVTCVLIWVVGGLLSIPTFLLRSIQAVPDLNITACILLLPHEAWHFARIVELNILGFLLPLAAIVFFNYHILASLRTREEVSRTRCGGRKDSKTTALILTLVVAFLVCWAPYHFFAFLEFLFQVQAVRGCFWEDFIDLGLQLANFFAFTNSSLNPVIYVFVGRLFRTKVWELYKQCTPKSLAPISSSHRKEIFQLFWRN

[3] = target: T3, Muscarinic acetylcholine receptor M2 (Homo sapiens, UniProt P08172)
T3 sequence (P08172 whole entry): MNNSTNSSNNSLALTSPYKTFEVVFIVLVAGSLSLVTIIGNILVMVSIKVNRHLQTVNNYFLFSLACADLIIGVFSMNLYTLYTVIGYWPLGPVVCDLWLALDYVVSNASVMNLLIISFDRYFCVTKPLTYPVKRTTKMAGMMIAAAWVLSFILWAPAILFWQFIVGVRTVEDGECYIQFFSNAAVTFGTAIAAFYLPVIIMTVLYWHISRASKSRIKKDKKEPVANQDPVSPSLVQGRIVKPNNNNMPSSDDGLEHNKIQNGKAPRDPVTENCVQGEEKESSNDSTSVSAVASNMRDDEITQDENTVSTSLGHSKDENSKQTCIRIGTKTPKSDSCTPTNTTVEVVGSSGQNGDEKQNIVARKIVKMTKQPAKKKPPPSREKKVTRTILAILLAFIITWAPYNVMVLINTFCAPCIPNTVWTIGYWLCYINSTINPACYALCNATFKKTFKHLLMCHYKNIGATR

D(4) dopamine receptor = target: T4, D(4) dopamine receptor (Homo sapiens, UniProt P21917)
T4 sequence (P21917 whole entry): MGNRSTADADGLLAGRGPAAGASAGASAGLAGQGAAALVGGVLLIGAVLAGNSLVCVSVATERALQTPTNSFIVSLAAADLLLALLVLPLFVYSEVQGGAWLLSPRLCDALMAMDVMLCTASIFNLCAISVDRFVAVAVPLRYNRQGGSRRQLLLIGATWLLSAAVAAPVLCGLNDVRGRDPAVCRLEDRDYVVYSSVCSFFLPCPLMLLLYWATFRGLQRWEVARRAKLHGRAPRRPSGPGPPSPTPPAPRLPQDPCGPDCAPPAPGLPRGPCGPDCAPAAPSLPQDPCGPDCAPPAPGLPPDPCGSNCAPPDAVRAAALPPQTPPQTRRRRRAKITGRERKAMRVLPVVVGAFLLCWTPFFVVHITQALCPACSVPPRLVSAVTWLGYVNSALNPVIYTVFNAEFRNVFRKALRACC

Measured: AC50
Note: assay procedure not described here.

5-hydroxytryptamine receptor 2B, sequence (P41595 whole entry): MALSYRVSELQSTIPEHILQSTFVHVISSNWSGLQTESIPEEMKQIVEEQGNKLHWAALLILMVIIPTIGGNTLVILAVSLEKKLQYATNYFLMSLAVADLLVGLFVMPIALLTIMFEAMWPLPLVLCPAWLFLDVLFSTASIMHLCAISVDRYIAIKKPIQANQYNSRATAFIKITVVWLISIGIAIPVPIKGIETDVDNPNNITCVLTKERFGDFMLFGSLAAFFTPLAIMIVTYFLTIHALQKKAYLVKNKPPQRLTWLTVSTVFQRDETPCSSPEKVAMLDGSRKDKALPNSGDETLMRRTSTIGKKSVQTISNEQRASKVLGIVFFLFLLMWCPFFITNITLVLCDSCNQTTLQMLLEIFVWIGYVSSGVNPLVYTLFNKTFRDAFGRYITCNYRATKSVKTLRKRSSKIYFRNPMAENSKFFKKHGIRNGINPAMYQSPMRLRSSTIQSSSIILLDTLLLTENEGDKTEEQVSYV
Glucagon receptor, sequence (P47871 whole entry): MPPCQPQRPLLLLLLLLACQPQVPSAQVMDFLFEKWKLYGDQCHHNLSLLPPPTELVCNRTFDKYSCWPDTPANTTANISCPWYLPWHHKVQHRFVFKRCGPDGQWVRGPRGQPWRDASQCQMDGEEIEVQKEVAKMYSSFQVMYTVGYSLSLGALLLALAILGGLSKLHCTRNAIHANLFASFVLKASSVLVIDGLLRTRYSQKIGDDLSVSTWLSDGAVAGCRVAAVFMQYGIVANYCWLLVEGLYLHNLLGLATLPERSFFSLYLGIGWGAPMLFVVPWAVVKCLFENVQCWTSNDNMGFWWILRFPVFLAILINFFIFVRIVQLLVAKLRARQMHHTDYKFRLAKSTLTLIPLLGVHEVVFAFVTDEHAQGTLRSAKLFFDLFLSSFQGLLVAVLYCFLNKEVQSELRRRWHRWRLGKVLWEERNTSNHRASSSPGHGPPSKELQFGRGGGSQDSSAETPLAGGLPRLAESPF
Voltage-dependent N-type calcium channel subunit alpha-1B, sequence (Q02294 whole entry): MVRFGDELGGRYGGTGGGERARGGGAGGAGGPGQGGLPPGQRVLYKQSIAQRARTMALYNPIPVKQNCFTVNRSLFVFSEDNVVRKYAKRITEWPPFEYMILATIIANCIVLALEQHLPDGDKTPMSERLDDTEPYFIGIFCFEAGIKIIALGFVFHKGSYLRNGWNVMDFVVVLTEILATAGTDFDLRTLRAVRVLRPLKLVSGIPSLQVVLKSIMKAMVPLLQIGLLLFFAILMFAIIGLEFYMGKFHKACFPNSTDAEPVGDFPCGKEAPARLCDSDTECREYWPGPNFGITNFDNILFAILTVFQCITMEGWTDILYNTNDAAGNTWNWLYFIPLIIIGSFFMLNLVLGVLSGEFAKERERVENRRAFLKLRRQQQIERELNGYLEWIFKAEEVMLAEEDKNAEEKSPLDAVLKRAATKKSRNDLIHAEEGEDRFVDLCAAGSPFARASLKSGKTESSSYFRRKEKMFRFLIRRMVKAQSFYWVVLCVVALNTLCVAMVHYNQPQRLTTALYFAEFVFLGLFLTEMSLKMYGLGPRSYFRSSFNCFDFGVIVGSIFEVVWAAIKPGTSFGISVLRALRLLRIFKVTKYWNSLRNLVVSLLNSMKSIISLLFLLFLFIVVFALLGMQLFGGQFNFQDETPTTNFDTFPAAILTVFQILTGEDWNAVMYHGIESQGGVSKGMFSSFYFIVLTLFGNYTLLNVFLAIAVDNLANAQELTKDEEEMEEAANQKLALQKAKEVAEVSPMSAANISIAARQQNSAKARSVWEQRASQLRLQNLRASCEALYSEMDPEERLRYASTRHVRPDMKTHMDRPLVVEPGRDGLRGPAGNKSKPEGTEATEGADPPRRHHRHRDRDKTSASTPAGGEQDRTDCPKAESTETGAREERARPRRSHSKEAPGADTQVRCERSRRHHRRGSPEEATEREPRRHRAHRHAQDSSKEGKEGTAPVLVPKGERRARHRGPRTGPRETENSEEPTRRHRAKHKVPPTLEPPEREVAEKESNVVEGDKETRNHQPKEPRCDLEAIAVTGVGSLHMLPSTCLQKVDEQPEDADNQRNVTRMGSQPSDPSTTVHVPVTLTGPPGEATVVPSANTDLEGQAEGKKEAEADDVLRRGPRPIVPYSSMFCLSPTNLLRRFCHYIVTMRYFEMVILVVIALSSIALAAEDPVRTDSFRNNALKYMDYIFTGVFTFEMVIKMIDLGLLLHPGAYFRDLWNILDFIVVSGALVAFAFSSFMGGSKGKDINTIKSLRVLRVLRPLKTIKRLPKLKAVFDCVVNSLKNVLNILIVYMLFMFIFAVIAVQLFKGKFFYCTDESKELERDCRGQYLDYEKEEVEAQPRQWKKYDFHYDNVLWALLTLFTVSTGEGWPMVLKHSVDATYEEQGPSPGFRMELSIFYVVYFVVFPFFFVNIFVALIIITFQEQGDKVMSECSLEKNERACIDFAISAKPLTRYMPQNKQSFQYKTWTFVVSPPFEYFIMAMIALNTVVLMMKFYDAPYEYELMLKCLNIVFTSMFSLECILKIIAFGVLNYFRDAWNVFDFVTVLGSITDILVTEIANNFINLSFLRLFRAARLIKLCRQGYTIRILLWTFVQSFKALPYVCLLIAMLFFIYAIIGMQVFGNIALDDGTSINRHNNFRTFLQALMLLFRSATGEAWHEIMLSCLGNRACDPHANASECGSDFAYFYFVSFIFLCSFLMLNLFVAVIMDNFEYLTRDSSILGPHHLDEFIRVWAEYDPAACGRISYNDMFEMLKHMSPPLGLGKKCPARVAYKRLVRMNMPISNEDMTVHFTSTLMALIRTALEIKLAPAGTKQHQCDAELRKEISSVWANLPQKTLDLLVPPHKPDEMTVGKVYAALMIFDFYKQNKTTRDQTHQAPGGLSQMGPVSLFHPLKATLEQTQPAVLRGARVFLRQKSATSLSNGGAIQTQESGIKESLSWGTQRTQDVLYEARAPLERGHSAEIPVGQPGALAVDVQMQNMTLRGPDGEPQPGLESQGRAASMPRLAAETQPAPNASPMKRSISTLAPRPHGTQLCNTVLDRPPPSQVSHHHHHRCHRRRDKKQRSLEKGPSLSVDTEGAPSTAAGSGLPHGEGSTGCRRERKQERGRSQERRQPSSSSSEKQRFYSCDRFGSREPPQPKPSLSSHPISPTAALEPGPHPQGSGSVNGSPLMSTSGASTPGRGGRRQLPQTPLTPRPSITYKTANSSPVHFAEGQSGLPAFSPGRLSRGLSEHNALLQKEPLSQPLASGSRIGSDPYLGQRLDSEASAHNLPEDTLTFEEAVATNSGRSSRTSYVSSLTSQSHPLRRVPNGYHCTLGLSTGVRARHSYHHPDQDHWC
Histamine H1 receptor, sequence (P35367 whole entry): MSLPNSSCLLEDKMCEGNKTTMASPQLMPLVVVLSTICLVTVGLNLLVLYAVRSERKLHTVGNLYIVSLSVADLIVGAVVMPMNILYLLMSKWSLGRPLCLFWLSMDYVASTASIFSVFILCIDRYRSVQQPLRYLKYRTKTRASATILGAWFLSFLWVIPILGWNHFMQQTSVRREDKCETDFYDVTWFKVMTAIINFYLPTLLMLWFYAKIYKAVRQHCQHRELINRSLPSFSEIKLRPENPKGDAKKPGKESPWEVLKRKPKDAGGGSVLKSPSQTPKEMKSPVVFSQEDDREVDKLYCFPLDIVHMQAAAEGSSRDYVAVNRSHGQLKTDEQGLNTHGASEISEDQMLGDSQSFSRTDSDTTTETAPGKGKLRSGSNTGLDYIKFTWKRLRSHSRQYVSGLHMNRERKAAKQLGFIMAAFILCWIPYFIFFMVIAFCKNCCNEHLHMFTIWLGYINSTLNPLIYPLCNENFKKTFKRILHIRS
D(1A) dopamine receptor, sequence (P21728 whole entry): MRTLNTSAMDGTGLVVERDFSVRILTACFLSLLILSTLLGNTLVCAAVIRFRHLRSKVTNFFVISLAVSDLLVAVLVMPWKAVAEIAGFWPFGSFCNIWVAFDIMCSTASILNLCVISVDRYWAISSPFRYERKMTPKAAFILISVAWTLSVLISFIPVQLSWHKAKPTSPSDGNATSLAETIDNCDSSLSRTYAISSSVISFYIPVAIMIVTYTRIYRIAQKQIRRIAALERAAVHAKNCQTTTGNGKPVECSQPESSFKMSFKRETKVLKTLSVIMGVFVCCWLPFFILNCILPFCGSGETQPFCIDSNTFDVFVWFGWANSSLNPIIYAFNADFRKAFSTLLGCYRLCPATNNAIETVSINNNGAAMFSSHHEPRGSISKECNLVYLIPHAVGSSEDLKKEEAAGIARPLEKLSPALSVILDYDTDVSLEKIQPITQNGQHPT

C[C@@H]1C[C@H]2[C@@H]3C[C@H](F)C4=CC(=O)C=C[C@]4(C)[C@@]3(F)[C@@H](O)C[C@]2(C)[C@@]1(OC(=O)c1ccco1)C(=O)SCF [FLUTICASONE FUROATE]
> 10 µM: all assays above
